Results as given in article PMC9882606, “Rationally designed inhibitors of the Musashi protein-RNA interaction by hotspot mimicry” (Research Square, 2023).

Assays:
MSI2 [1] = target: MSI2 (Homo sapiens, UniProt Q96DH6); assay: MS2-TRAP aptamer pull-down reporter assay in HEK293 cells; type: cell-based; parameters: HEK293 cells (with a high baseline MSI2 expression); endogenous in cells; host or cells: HEK293; conditions: HEK293, 24 h treatment; for total amount of MSI2 in cells: input prior to IP; for amount of Luc mRNA in cells (qPCR): prior to IP
Excerpt: Figure 5: Characterization of R12–8–44–3 in a reporter cell line. […] As a positive control, Ro 08–2750 (aka “Ro”) is also included in these studies. (B) Schematic of reporter assay. HEK293 cells are transfected with a plasmid encoding an arbitrary gene (Luc) with UAG repeats (to recruit MSI2) and MS2 repeats (for pulldown) appended to its 3’ UTR. The same vector also includes FLAG-labeled MS2-BP. Upon anti-FLAG immunoprecipitation (IP), the FLAG-labeled MS2-BP allows purification of the Luc mRNA along with any associated factors. (C) Prior to IP, cells express Luc mRNA to a similar extent irrespective of whether they were treated with DMSO, R12-neg, R12–8–44–3, or Ro. (D) Prior to IP (“input”), MSI2 is detected in all samples to a similar extent (as is KU-86 loading control). After pulldown of Luc mRNA, MSI2 is found associated with the mRNA in cells treated with DMSO or R12-neg, but not in cells that had been treated with R12–8–44–3 or Ro. Representative image is shown; quantification is plotted as the average of 2 independent experiments ± S.E.M. Statistical analysis was performed using unpaired two tailed t-test, with * indicating p<0.05. Uncropped Western blots from this experiment are provided as Figure S8.
To determine whether inhibition of MSI1/MSI2 by R12–8–44–3 would apply in a cellular context, we adapted an aptamer pull-down reporter assay that we previously used to validate candidate Musashi target genes. Briefly, our approach is a variation of the MS2-TRAP (MS2-tagged RNA affinity purification) method, which uses bacteriophage protein MS2-BP to extract from cells any factors that associate with RNAs containing a specific stem-loop structure (MS2) from the phage genome. Here, we designed an mRNA construct that would include a series of MS2 hairpins and also a MSI2 recognition sequence. We transfected this construct into cells that also express FLAG-tagged MS2-BP (a protein unrelated to MSI2). By affinity purification using the FLAG tag, proteins bound to the designed mRNA can be extracted from cells.
To test for inhibition of MSI2 in cells, we transfected HEK293 cells (with a high baseline MSI2 expression), with the pMS2-LUC-3’UTR from our previous studies. This vector appends onto the 3’UTR of an arbitrary gene (in this case luciferase) two key elements: UAG-motifs comprising a MSI2 recognition sequence, and a series of five MS2 hairpins. The same vector also encodes the FLAG-MS2-BP fusion needed for affinity purification (Figure 5b). Cells were then treated with each compound of interest for 24 h, and then the cells were subsequently harvested and used for anti-FLAG immunoprecipitation. […] Using qPCR we evaluated the amount of Luc mRNA in cells treated with R12–8–44–3, R12-neg, or Ro, and found this to be unchanged (Figure 5c).

MSI1 RRM1 [2] = target: T1, MSI1 RRM1 (Homo sapiens, UniProt O43347); assay: Fluorescence polarization (FP) competition assay with fluorescein-labeled RNA; type: binding; conditions: for inhibition in FP competition assay: MSI1 RRM1, result in words
T1 sequence (O43347 20-110 limits assumed): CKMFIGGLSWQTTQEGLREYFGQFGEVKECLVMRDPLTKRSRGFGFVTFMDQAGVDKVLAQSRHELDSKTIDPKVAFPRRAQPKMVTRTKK
Excerpt: Figure 1: The hotspot mimicry approach. […] (A) The structure of the MSI1 / RNA complex. The RNA (sticks) wraps around the protein (spheres). Two adjacent bases, A106 and G107 (magenta), are buried in a shallow pocket on the protein surface. (B) An interaction map is generated from the RNA in the complex, by collecting deeply buried bases (magenta) and atoms involved in intermolecular hydrogen bonds (acceptors shown in yellow, donors in green). […] Positive values indicate diminished binding when a given base is replaced with an abasic site, showing that A106 and G107 contribute more than the other nearby bases to the binding affinity of this interaction. (E) The hotspot pharmacophore serves as a template for ligand-based screening, searching for compounds that would mimic the three-dimensional features of the pharmacophore. The screen led to the identification of compound R12, which mimics the geometry of the rings and provides three of the four desired hydrogen bonding groups. (F) R12 competes with fluorescein-labeled RNA for MSI1 binding, as observed through a fluorescence polarization assay. […] (G) Superposition of the hotspot pharmacophore back onto the protein structure illustrates the interactions that should be captured by an ideal ligand: stacking against three aromatic sidechains, and four intermolecular hydrogen bonds.
We applied our “hotspot mimicry” approach to the structure of Musashi-1 RRM1 bound to cognate RNA [54], and found a single hotspot pharmacophore derived from an adjacent pair of buried bases, Adenine106 and Guanine107 (Figure 1a). […] This pharmacophore captures both the aromatic stacking and the hydrogen bonding of the RNA hotspot through its inclusion of ring moieties and donor/acceptor positions, respectively (Figure 1c). To test whether these two particular bases indeed serve as a hotspot of the MSI1 RRM1 / RNA interaction, we used a fluorescence polarization (FP) competition assay (see Supporting Methods) to measure the binding affinity of RNA variants that maintained the backbone but lacked individual bases. […] In contrast, introduction of an abasic site at other nearby positions affected binding much less. Confirmation that A106 and G107 serve as hotspot bases of this interaction thus provided experimental evidence supporting the pharmacophore selection from our computational approach.

MSI2 [3] = assay: Immunoblot of cellular MSI2 protein levels in PC9 cells; type: cell-based, human; conditions: PC9, 20 μM compound for 1, 3, 6, 24, or 48 hours
Excerpt: To explore the effect of these MSI2 inhibitors in a cancer-relevant cellular context, we selected two MSI2-dependent cancer cell lines: non-small cell lung cancer cell line PC9 and leukemia cell line K562 [73, 98–101]. Upon treatment of PC9 cells with Ro, R12–8–44–3, or negative control R12-neg, we found at multiple time points that cellular MSI2 protein levels were unchanged (Figure 6a). To confirm target engagement, we therefore adapted the cellular thermal shift assay (CETSA). To determine experimental conditions, we first harvested cells and incubated at increasing temperatures; we then removed aggregated protein by centrifugation and used Western blotting to probe the amount of MSI2 remaining in the soluble fraction (Figure 6b, Figure S9). Having established 49 °C as the midpoint of the transition under these (non-equilibrium) conditions, we then treated cells with our candidate MSI2 inhibitor for 3 h, and heated to 49 °C.
Figure 6: Direct cellular engagement of MSI2 interaction by R12–44–3. (A) Immunoblot from PC9 cells treated with Ro (positive control), R12-neg (negative control), or R12–8–44–3. Cells were treated with 20 μM compound for 1, 3, 6, 24, or 48 hours. MSI2 protein abundance was then quantified and normalized to untreated sample. One representative image is shown; quantification is presented as the average ± S.E.M. from 3 independent replicates. (B) Thermal-induced aggregation of cellular MSI2 in the PC9 cell line. Cells were briefly incubated at temperatures between 40 °C to 67 °C, then centrifuged and the amount of MSI2 remaining in the soluble fraction was quantified by Western blotting. […] One representative image is shown; quantification is presented as the average ± S.E.M. from 3 independent replicates, normalized first to beta-actin and then to DMSO control. […] One representative image is shown; quantification is presented as the average ± S.E.M. from 3 independent replicates, normalized first to beta-actin and then to DMSO control. […]

[4] = Solubility as noted during FP testing; type: physicochemical; conditions: result in words
Excerpt: We then used this pharmacophore as a template for virtual screening. The 12 top-scoring hits identified from the resulting screen could each be classified into one of three diverse chemotypes (Figure S1). While none of these scaffolds bear any obvious resemblance in chemical structure to a nucleobase pair, the overlap in three-dimensional shape and hydrogen bonding potential between the hotspot pharmacophore and the modeled conformation of each compound is immediately evident. Despite this strong similarity, none of the 12 hit compounds recapitulated all four of the polar groups included in the hotspot pharmacophore, and only three hit compounds matched to three of the polar groups: R12 (Figure 1e), its close analog R4, and R7 (Figure S2).
(§1) Out of concern that R12–7’s activity may be associated with compound aggregation, we elected to continue with optimization of R12–8 (Figure 2b).

MSI1 RRM1 [5] = target: T1, MSI1 RRM1; assay: Differential Scanning Fluorimetry (DSF); type: binding; conditions: increasing compound dose
Excerpt: as §1
To further characterize R12–8–44–3, we applied differential scanning fluorimetry (DSF) as an orthogonal secondary assay. […] While this could be a sign of apparent inhibition occurring through aggregation, there are also legitimate inhibitors that reduce their target protein’s melting temperature. An alternate explanation could simply be that MSI1’s folding landscape is not simply two-state, and that a partially-folded intermediate stabilized by R12–8–44–3 affects the unfolding transition.

PC9 cells [6] = assay: CellTiter-Blue cell viability, PC9; type: cell-based, human; conditions: PC9, 3 days, dose-response
Description: (§2) Figure 7: Cellular characterization of MSI2 inhibition by R12–8–44–3. (A) Quantification of mRNA immunoprecipitation (RIP) results. Cells were treated with 10 μM of the indicated compounds for 8 hours. After immunoprecipitation with anti-MSI2, mRNA targets were quantified. The amount of each target mRNA in the pulldown was calculated relative to the input, and results from all targets were normalized to PTP4A1. Treating cells with R12–8–44–3 disrupted the interaction with all four cognate mRNAs (PTP4A, SMAD3, EGFR, and MSI2). Data are presented as the average ± S.E.M. from at least 3 independent replicates. […] Cells were treated with indicated compounds at two concentrations (5 μM and 20 μM) for 48 hours, then protein levels of relevant MSI2 targets were determined (EGFR, SMAD3, and MSI2). One representative image is shown; quantification is presented as the average ± S.E.M. from at least 3 independent replicates, normalized first to beta-actin and then to DMSO-treated cells. (C) Cell viability dose-response quantified by CellTiter-Blue after 3 days (left) and cell proliferation with 10μM of compounds quantified by clonogenic assay after 7 days (right). […] (D) Cell viability quantified by clonogenic assay of PC9 cell line after 7-day treatment with 2 nM osimertinib (osi alone), osimertinib with 10 μM R12–8–44–3, or osimertinib with 10 μM R12-neg. […]

PC9 cells [7] = assay: Clonogenic assay, PC9; type: cell-based, human; conditions: PC9, 10 μM, 7 days
Description: as §2

leukemia/lymphoma models = test system: leukemia/lymphoma models; parameters: method as in PMID 31217428, PMID 36167829; conditions: in vivo leukemia/lymphoma models; cited from earlier work
MSI1/MSI2 = test system: MSI1/MSI2; parameters: method as in PMID 31217428, PMID 36167829; conditions: in vitro; cited from earlier work

Chain of MSI2 (Homo sapiens, UniProt Q96DH6) (Q96DH6 whole entry): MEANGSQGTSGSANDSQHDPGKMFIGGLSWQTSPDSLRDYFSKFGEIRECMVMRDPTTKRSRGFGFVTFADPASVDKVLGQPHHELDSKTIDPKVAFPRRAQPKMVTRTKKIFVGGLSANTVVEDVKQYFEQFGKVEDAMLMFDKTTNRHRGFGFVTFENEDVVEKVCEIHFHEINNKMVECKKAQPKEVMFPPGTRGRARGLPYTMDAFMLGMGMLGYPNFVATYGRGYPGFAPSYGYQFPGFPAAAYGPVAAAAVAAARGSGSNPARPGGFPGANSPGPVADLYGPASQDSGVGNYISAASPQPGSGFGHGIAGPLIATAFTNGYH

| MSI2 purified with reporter mRNA (anti-FLAG pulldown) (MSI2 [1]) | total amount of MSI2 in cells (MSI2 [1]) | amount of Luc mRNA in cells (qPCR) (MSI2 [1]) | inhibition in FP competition assay (MSI1 RRM1 [2]) | SMILES | cellular MSI2 protein levels (MSI2 [3]) | solubility [4] | change of the protein's melting temperature (MSI1 RRM1 [5]) | other results |
| --- | --- | --- | --- | --- | --- | --- | --- | --- |
| does not disrupt MSI2 pulldown | unaffected | unchanged | inactive | Cc1sc2nc(COC(=O)c3cccc(Cl)c3Cl)nc(N)c2c1C [R12-neg] | unchanged |  |  |  |
|  |  |  | showed inhibition | Nc1nc(COC(=O)c2cncc(Br)c2)nc2ccccc12 [R12] |  | low solubility |  |  |
|  |  |  |  | COc1ccc(C(=O)OCc2nc(N)c3c(C)c(C)sc3n2)c(N)c1 [R12–8–44] |  |  | monotonically-increasing melting temperature with increasing ligand concentration | improvement in potency over parent compound (MSI1 RRM1 [2]; FP assay, MSI1 RRM1): more than ten-fold improvement in potency |
| much less MSI2 is purified | unaffected | unchanged |  | Cc1cc2nc3c(=O)[nH]c(=O)nc-3n(C)c2cc1C=O [Ro 08–2750, reference compound] | unchanged |  |  | cell viability (CellTiter-Blue) (PC9 cells [6]): dramatically diminishes cell viability; cell proliferation (clonogenic assay) (PC9 cells [7]): dramatically diminishes cell viability; disease burden (leukemia/lymphoma models): reduce disease burden; inhibition of RNA-binding activity of MSI1/MSI2 (MSI1/MSI2): inhibit the RNA-binding activity of MSI1/MSI2 in vitro |

| SMILES | MSI2 purified with reporter mRNA (anti-FLAG pulldown) (MSI2 [1]) | total amount of MSI2 in cells (MSI2 [1]) | amount of Luc mRNA in cells (qPCR) (MSI2 [1]) | inhibition in FP competition assay (MSI1 RRM1 [2]) | cellular MSI2 protein levels (MSI2 [3]) | solubility [4] | change of the protein's melting temperature (MSI1 RRM1 [5]) | other results |
| --- | --- | --- | --- | --- | --- | --- | --- | --- |
| COc1ccc(C(=O)OCc2nc(N)c3ccccc3n2)c(N)c1 [R12–8] |  |  |  | superior inhibition and solubility than R12 |  | superior inhibition and solubility than R12 | monotonically increasing stabilization with increasing dose |  |
